From paper PMC10004634 (PLOS ONE, 2023)

Test system: TMD8 cells
Test: SILAC phosphoproteomic analysis
Description: For differential SILAC encoding, both cells were grown in arginine- and lysine-deficient culture medium containing light (Arg0/Lys0) or heavy (Arg10/Lys8) isotopic forms of L-arginine and L-lysine (SILAC medium). […] For mass spectrometric analysis, phosphopeptide-enriched samples were loaded onto a reversed phase analytical column, resolved by an acetonitrile gradient using a nanoflow HPLC system and directly electrosprayed via a nanoelectrospray ion source into an LTQ-Orbitrap Velos mass spectrometer (Thermo Fisher Scientific). […] A false discovery rate (FDR) of 0.01 was selected for protein and peptide identification, and a posterior error probability of ≤0.1 for each peptide-to-spectral match was required. The resulting list of phosphosites exported from the MaxQuant software was filtered for class-I sites (only serine, threonine, or tyrosine assignments with a localization probability of ≥0.75) [33] and used for all subsequent biostatistical analysis. […] Gaussian regression analysis on the histogram plot of these log2-transformed ratios was performed using Sigmaplot (version 10.0; Systat Software Inc.). The obtained values for the mean and standard deviation across the whole quantitative dataset were used to determine thresholds for significant regulation of at least ±2.5 σ. […] Furthermore, only phosphosites conforming to this criterion and showing consistent regulation in both biological replicates were considered as regulated.

Structure (SMILES): CC#CC(=O)N1CC[C@@H](n2c(=O)n(-c3ccc(Oc4ccccc4)cc3)c3c(N)ncnc32)C1 [Tirabrutinib]
- reduction of ATF2 phosphorylation on Thr-69 (1 μM, 1 h): approximately 50%
- reduction of ATF2 phosphorylation on Thr-71 (1 μM, 1 h): approximately 50%
- number of downregulated phosphorylation sites (1 μM, 1 h, ratio <0.679): 138
- number of upregulated phosphorylation sites (1 μM, 1 h, ratio >1.472): 15
- Tirabrutinib/ctrl. rep. 1 (AKT1S1 S183): 0.69
- Tirabrutinib/ctrl. rep. 2 (AKT1S1 S183): 0.65
- Tirabrutinib/ctrl. rep. 1 (AKT1S1 S202): 1.29
- Tirabrutinib/ctrl. rep. 2 (AKT1S1 S202): 1.18
- Tirabrutinib/ctrl. rep. 1 (AKT1S1 S203): 1.16
- Tirabrutinib/ctrl. rep. 2 (AKT1S1 S203): 1.11
- Tirabrutinib/ctrl. rep. 1 (AKT1S1 S211): 0.98
- Tirabrutinib/ctrl. rep. 2 (AKT1S1 S211): 0.82
- Regulation of Phosphorylation Site (AKT1S1 T246): ↓
- Tirabrutinib/ctrl. rep. 1 (AKT1S1 T246): 0.61
- Tirabrutinib/ctrl. rep. 2 (AKT1S1 T246): 0.51
- Tirabrutinib/ctrl. rep. 1 (AKT1 S124): 0.97
- Tirabrutinib/ctrl. rep. 2 (AKT1 S124): 1.01
- Tirabrutinib/ctrl. rep. 1 (AKT1 S129): 1.07
- Tirabrutinib/ctrl. rep. 2 (AKT1 S129): 0.94
- Tirabrutinib/ctrl. rep. 1 (AKT2 S126): 0.95
- Tirabrutinib/ctrl. rep. 2 (AKT2 S126): 0.95
- Tirabrutinib/ctrl. rep. 1 (AKT2 T451): 1.00
- Tirabrutinib/ctrl. rep. 2 (AKT2 T451): 0.94
- Tirabrutinib/ctrl. rep. 1 (ATF2 S112): 1.07
- Tirabrutinib/ctrl. rep. 2 (ATF2 S112): 0.83
- Regulation of Phosphorylation Site (ATF2 T69): ↓
- Tirabrutinib/ctrl. rep. 1 (ATF2 T69): 0.53
- Tirabrutinib/ctrl. rep. 2 (ATF2 T69): 0.53
- Regulation of Phosphorylation Site (ATF2 T71): ↓
- Tirabrutinib/ctrl. rep. 1 (ATF2 T71): 0.50
- Tirabrutinib/ctrl. rep. 2 (ATF2 T71): 0.53
- Tirabrutinib/ctrl. rep. 1 (CARD11 S483): 0.72
- Tirabrutinib/ctrl. rep. 2 (CARD11 S483): 1.26
- Tirabrutinib/ctrl. rep. 1 (CARD11 S529): 0.89
- Tirabrutinib/ctrl. rep. 2 (CARD11 S529): 0.90
- Tirabrutinib/ctrl. rep. 2 (CARD11 S554): 0.79
- Tirabrutinib/ctrl. rep. 1 (CARD11 S610): 0.99
- Tirabrutinib/ctrl. rep. 2 (CARD11 S610): 0.96
- Tirabrutinib/ctrl. rep. 1 (CARD11 S622): 1.01
- Tirabrutinib/ctrl. rep. 2 (CARD11 S622): 1.05
- Tirabrutinib/ctrl. rep. 1 (CARD11 S903): 1.34
- Tirabrutinib/ctrl. rep. 2 (CARD11 S903): 1.37
- Tirabrutinib/ctrl. rep. 1 (CARD11 S942): 0.92
- Tirabrutinib/ctrl. rep. 2 (CARD11 S942): 0.78
- Regulation of Phosphorylation Site (ELK1 S501): ↓
- Tirabrutinib/ctrl. rep. 1 (ELK1 S501): 0.33
- Tirabrutinib/ctrl. rep. 2 (ELK1 S501): 0.48
- Regulation of Phosphorylation Site (ERF S327): ↓
- Tirabrutinib/ctrl. rep. 1 (ERF S327): 0.59
- Tirabrutinib/ctrl. rep. 2 (ERF S327): 0.50
- Tirabrutinib/ctrl. rep. 1 (ERF T526): 0.85
- Tirabrutinib/ctrl. rep. 2 (ERF T526): 0.87
- Regulation of Phosphorylation Site (ETV3 S245): ↓
- Tirabrutinib/ctrl. rep. 1 (ETV3 S245): 0.30
- Tirabrutinib/ctrl. rep. 2 (ETV3 S245): 0.28
- Regulation of Phosphorylation Site (ETV3 S250): ↓
- Tirabrutinib/ctrl. rep. 1 (ETV3 S250): 0.30
- Tirabrutinib/ctrl. rep. 2 (ETV3 S250): 0.28
- Tirabrutinib/ctrl. rep. 1 (HSP27 S15): 0.59
- Tirabrutinib/ctrl. rep. 2 (HSP27 S15): 1.31
- Tirabrutinib/ctrl. rep. 1 (HSP27 S78): 0.67
- Tirabrutinib/ctrl. rep. 2 (HSP27 S78): 0.69
- Regulation of Phosphorylation Site (HSP27 S82): ↓
- Tirabrutinib/ctrl. rep. 1 (HSP27 S82): 0.62
- Tirabrutinib/ctrl. rep. 2 (HSP27 S82): 0.60
- Tirabrutinib/ctrl. rep. 1 (IKBKG S455): 1.17
- Tirabrutinib/ctrl. rep. 2 (IKBKG S455): 0.97
- Regulation of Phosphorylation Site (MAPK1 Y187): ↓
- Tirabrutinib/ctrl. rep. 1 (MAPK1 Y187): 0.34
- Tirabrutinib/ctrl. rep. 2 (MAPK1 Y187): 0.47
- Regulation of Phosphorylation Site (MAPK3 Y204): ↓
- Tirabrutinib/ctrl. rep. 1 (MAPK3 Y204): 0.26
- Tirabrutinib/ctrl. rep. 2 (MAPK3 Y204): 0.42
- Tirabrutinib/ctrl. rep. 1 (NHE1 S693): 1.21
- Tirabrutinib/ctrl. rep. 2 (NHE1 S693): 1.00
- Regulation of Phosphorylation Site (NHE1 S703): ↓
- Tirabrutinib/ctrl. rep. 1 (NHE1 S703): 0.55
- Tirabrutinib/ctrl. rep. 2 (NHE1 S703): 0.51
- Tirabrutinib/ctrl. rep. 1 (NHE1 S785): 1.11
- Tirabrutinib/ctrl. rep. 2 (NHE1 S785): 1.29
